Results as given in publication PMC10399197, “Insights into Enzymatic Catalysis from Binding and Hydrolysis of Diadenosine Tetraphosphate by E. coli Adenylate Kinase” (Biochemistry, 2023).
pKd: −log10 of the molar value.

How the values were obtained:
adenylate kinase (AdK) [1] = molecular target: T1, adenylate kinase (AdK) (Escherichia coli, UniProt P69441); assay: X-ray crystal structure at […] Å (AdK cocrystallized with AP4A; two ADP molecules modeled); format: binding
adenylate kinase (AdK) [2] = molecular target: T1, adenylate kinase (AdK); assay: Kd (Figure S1; ITC in the Supporting Information); also 1H-15N HSQC NMR, DEER EPR and […] NMR hydrolysis; format: binding; design: wild-type AdK

T1 sequence (P69441 whole entry): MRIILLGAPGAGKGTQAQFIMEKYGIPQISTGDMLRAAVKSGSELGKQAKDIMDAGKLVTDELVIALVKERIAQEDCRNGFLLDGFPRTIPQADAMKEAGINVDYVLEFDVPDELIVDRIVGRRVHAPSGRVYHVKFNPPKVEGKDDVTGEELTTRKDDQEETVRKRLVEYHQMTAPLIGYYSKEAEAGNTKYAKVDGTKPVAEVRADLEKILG

Row | SMILES | X-ray crystal structure at 1.49 Å (AdK cocrystallized with AP4A); two ADP molecul (adenylate kinase (AdK) [1]) | pKd (adenylate kinase (AdK) [2])
1 | Nc1ncnc2c1ncn2[C@@H]1O[C@H](COP(=O)(O)OP(=O)(O)O)[C@@H](O)[C@H]1O [ADP] | the crystals trapped AdK in the closed conformation in complex with two ADP molecules | –
2 | Nc1ncnc2c1ncn2[C@@H]1O[C@H](COP(=O)(O)OP(=O)(O)OP(=O)(O)OP(=O)(O)OC[C@H]2O[C@@H](n3cnc4c(N)ncnc43)[C@H](O)[C@@H]2O)[C@@H](O)[C@H]1O [AP4A] | – | 4.85
